Laboratory results taken from publication PMC12402003 (Frontiers in Nutrition, 2025).

Columns and labels:
HepG2 cells = assay: TG and TC content in OA-induced high-fat HepG2 cells; format: cell-based, human; details: OA-induced high-fat HepG2 cells, 50 μM, 24 h
Experimental: For high fat HepG2 model: […] Afterwards, cells were harvested and lysed. […] For TG and TC assay: […] The medium was removed and the cells were washed twice with PBS. The levels of triglycerides (TG) and total cholesterol (TC) in the cells were determined according to the instructions of test kits.

Fabp4 = assay: Western blot of Fabp4 protein in Caco-2/HepG2 co-culture; format: cell-based, human; details: OA-induced co-culture, 50 μM, 24 h; compared vs. OA
Experimental: (§1) Cells from the co-culture model were lysed and supernatants were collected. The protein concentrations were determined using the BCA Protein Quantitation Kit. Then electrophoresis of samples was conducted using a SDS-PAGE kit (Beyotime Biotechnology) following the manufacturer’s instructions and transferred to poly-vinylidene difluoride (PVDF) membrane. Next, membranes were incubated in 5% nonfat milk to block non-specific antibody binding for 30 min at room temperature and followed by incubating with primary antibodies and secondary antibodies. Chemiluminescence based-images of the blots were acquired using ImageQuant LAS 500 system (GE, United States). Protein bands were quantified using ImageJ (version 1.53a) software. The changes in expression levels of these proteins detected finally are used to evaluate the sample’s effect on lipid metabolism.

Srebp-1c = assay: Western blot of Srebp-1c protein in Caco-2/HepG2 co-culture; format: cell-based, human; details: OA-induced co-culture, 50 μM, 24 h; compared vs. OA
Experimental: as §1

[1] = system: Caco-2/HepG2 co-culture model; assay: Lipid metabolites and AST/ALT in OA-induced Caco-2/HepG2 co-culture model; format: cell-based, human; details: for reduction in TC content: HepG2 on BL side after transport by Caco-2, 50 μM
Experimental: Caco-2 and HepG2 cells were cultured separately at 37°C with 5% CO2 in DMEM medium containing 10% fetal bovine serum, 50 U/mL penicillin, and 50 μg/mL streptomycin. Caco-2 cells were cultured in 96-well plates for 24 h and harvested with trypsin–EDTA to seed to the AP side (1 × 10^5 cells/mL, 500 μL) in monolayers. 1,500 μL of Minimum Essential Medium (MEM) was simultaneously added to the BL compartment. HepG2 cells were seeded to the BL compartment at the day 15. The total culture period was 18 d.
The co-culture cells were collected by the previous method from the above mentioned, and the cells were lysed on ice for 30 min using IP cell lysis buffer (20 mM Tris pH 7.5, 200 mM NaCl, 10% glycerol, 0.2 mM DTT, 0.1 mM EDTA, 1 mM protease inhibitor). The contents of TG, T-CHO, LDL-C, HDL-C, AST, and ALT from HepG2 were measured following the test kit instructions. Intracellular protein content was measured to calibrate the levels of relevant metabolites using the BCA Protein Quantitation Kit (Beyotime Biotechnology).

Caco-2 cells = assay: MTT cell viability assay in Caco-2 cells; format: cell-based, human; details: 24 h; for cell viability: 100 μM, compared to control (0 μM); for change in cell vitality: concentrations below 50 μM
Experimental: Cell culture: […] Subsequently, the supernatant was removed and 200 μL of MTT solution (0.1 mg/mL) was added to each well to incubate for an additional 4 h (200 μL for Caco-2 cells, 100 μL for HepG2 cells, both at a concentration of 0.1 mg/mL). Finally, formazan crystals were completely dissolved in DMSO in a shaker for 10 min and the absorbance was measured at a wavelength of 490 nm using a microplate absorbance reader (FLUOstar Omera, BMG Labtech, Germany). Cell viability was determined using the following equation: Cell viability (%) = (OD sample/OD control) × 100, where OD is the optical density. The absorbance values for drug fractions […], catechin, and […]-catechin) were compared to those of untreated culture (control). Each treatment was set up in triplicate.

P-gp = P-gp (Homo sapiens, UniProt P08183); assay: Bidirectional Caco-2 transport with verapamil (P-gp inhibitor); details: for ER (efflux rate) / Papp (AP → BL) / Papp (BL → AP): 50 μmol/L, + Ver (verapamil 100 μM); for substrate of P-gp: bidirectional assay with verapamil 100 μM
Experimental: Transport assay: The monolayers were pre-incubated at 37°C for 30–40 min with 5% CO2 in a pre-warmed media, which contained Hanks Balanced Salt solution (HBSS, BioWhittaker), HEPES buffer and D-glucose. For the transport of apical (AP) side to basolateral (BL) side, the media was removed after pre-incubation and 0.5 mL of polyphenols was added to the AP side. 1.5 mL of HBSS were added to the BL side. Then 200 μL of samples were taken from the BL side at 30, 60, 90, 120 and 150 min, respectively. The BA sample volumes removed were therewith replenished with same volumes of the HBSS solution. For the transport of BL to AP, polyphenols were added to BL and samples were taken from AP at a series of time points as above mentioned. The TEER was measured from the beginning to the end of the assay.
Caco-2 cells (1×10^5 cells/well) were cultured in 96-well plates for 24 h until differentiation, with a TEER value exceeding 400 Ω·cm^2. Bidirectional transport experiments from AP to BL or from BL to AP were performed as mentioned in the transport assay. The apparent permeability coefficients, cumulative release and initial concentrations and efflux rates were determined. In brief, the total transport time was set to 150 min. For AP to BL transport, 0.5 mL of polyphenols were added to AP with 1.5 mL of HBSS to the BL side. 200 μL of samples were collected from BL at different time points (30, 60, 90, 120, and 150 min). For BL to AP transport, polyphenols were added to BL and samples were collected from AP as the mentioned above.

Fasn = assay: Western blot of Fasn protein in Caco-2/HepG2 co-culture; format: cell-based, human; details: OA-induced co-culture, 50 μM, 24 h; compared vs. OA
Experimental: as §1

Sequence of P-gp (P08183 whole entry): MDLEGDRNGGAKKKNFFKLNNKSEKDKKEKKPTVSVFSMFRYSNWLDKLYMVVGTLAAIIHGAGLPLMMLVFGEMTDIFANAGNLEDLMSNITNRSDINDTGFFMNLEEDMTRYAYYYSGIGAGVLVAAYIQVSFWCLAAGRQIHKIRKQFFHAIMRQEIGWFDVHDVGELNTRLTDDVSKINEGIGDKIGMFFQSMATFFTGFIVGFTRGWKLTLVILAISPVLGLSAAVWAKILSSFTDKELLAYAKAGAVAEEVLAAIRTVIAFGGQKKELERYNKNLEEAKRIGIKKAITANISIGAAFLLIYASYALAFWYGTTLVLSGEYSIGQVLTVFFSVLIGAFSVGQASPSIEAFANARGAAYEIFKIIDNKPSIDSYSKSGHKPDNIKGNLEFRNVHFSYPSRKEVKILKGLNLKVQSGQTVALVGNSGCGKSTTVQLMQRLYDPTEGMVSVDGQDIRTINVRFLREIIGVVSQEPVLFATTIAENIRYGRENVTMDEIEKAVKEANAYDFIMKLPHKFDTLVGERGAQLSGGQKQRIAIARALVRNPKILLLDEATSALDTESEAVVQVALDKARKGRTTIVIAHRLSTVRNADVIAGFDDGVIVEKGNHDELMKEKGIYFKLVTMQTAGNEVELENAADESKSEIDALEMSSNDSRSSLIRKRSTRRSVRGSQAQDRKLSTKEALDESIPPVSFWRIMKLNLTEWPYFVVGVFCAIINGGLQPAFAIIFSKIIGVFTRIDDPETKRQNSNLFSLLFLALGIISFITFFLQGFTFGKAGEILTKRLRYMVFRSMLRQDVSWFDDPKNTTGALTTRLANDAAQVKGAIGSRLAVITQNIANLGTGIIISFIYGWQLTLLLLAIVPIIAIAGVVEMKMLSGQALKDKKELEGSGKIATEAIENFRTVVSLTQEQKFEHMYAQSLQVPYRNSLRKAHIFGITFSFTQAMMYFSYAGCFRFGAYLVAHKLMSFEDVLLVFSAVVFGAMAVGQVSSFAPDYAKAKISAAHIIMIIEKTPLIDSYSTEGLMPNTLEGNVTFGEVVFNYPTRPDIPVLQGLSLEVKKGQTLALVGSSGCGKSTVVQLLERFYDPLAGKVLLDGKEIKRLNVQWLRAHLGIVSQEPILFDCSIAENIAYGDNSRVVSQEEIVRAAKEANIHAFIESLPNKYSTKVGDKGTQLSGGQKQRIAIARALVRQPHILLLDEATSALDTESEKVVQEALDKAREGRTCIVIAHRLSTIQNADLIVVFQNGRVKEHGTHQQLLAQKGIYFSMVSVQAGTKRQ

| Compound | Fabp4 protein expression level (densitometry) (Fabp4) | reduction of ALT level [1] | reduction of AST level [1] | reduction in TC content [1] | cell viability (Caco-2 cells) | change in cell vitality (Caco-2 cells) | ER (efflux rate) (P-gp; 30 min) | Papp (AP → BL) (P-gp; 30 min) | Papp (BL → AP) (P-gp; 30 min) | ER (efflux rate) (P-gp; 60 min) | Papp (AP → BL) (P-gp; 60 min) | Papp (BL → AP) (P-gp; 60 min) | ER (efflux rate) (P-gp; 90 min) | Papp (AP → BL) (P-gp; 90 min) | Papp (BL → AP) (P-gp; 90 min) | ER (efflux rate) (P-gp; 120 min) | Papp (AP → BL) (P-gp; 120 min) | Papp (BL → AP) (P-gp; 120 min) | ER (efflux rate) (P-gp; 150 min) | Papp (AP → BL) (P-gp; 150 min) | other results |
| --- | --- | --- | --- | --- | --- | --- | --- | --- | --- | --- | --- | --- | --- | --- | --- | --- | --- | --- | --- | --- | --- |
| OC[C@H]1O[C@@H](Oc2cc3c(O)cc(O)cc3[o+]c2-c2ccc(O)c(O)c2)[C@H](O)[C@@H](O)[C@@H]1O [C3G, Cyanidin-3-O-glucoside] | 1.23 | not observed | not observed | 7.69% | 80% | No significant changes | 0.48 | 11.4 ± 0.49 ×10^−5 cm /s | 5.49 ± 0.66 ×10^−5 cm /s | 0.54 | 5.73 ± 0.21 ×10^−5 cm /s | 3.07 ± 0.2 ×10^−5 cm /s | 0.51 | 4.05 ± 0.12 ×10^−5 cm /s | 2.09 ± 0.03 ×10^−5 cm /s | 0.54 | 3.16 ± 0.17 ×10^−5 cm /s | 1.71 ± 0.15 ×10^−5 cm /s | 0.51 | 2.47 ± 0.14 ×10^−5 cm /s | reduction of TG content (HepG2 cells): 21%; Srebp-1c protein expression level (densitometry) (Srebp-1c): 1.32; reduction of OA-induced LDL-C increase ([1]; 50 μM): did not change; Papp (BL → AP) (P-gp; 150 min): 1.21 ± 0.28 ×10^−5 cm /s; substrate of P-gp (P-gp): not substrates |
| O.Oc1cc(O)c2c(c1)O[C@H](c1ccc(O)c(O)c1)[C@@H](O)C2 [catechin] | 1.23 | not observed | not observed | 7.69% | 80% | No significant changes | 0.57 | 11.2 ± 0.23 ×10^−5 cm /s | 6.38 ± 0.37 ×10^−5 cm /s | 0.57 | 6.02 ± 0.37 ×10^−5 cm /s | 3.45 ± 0.29 ×10^−5 cm /s | 0.51 | 3.98 ± 0.31 ×10^−5 cm /s | 2.05 ± 0.56 ×10^−5 cm /s | 0.52 | 3.25 ± 0.52 ×10^−5 cm /s | 1.68 ± 0.29 ×10^−5 cm /s | 0.52 | 2.54 ± 0.17 ×10^−5 cm /s | Fasn protein expression level (densitometry) (Fasn): 1.11; Papp (BL → AP) (P-gp; 150 min): 1.32 ± 0.34 ×10^−5 cm /s; substrate of P-gp (P-gp): not substrates |
